Several values for one entry are separate records, joined by “and”; a condition that tells them apart may be missing. Equal entries are not always repeated. Where two headings read alike, the source gives them in different places.
Assays:
[1] = tested on: A549 lung cancer cells; assay: ICP-MS detection of intracellular Au (cellular uptake)
[2] = tested on: A549 lung cancer cells; assay: Cell proliferation (MTT assay) in A549 lung cancer cells; format: cell-based, human; settings: for Fold less potent than 1 in cell proliferation: A549
Method: To gauge the ability of each complex to inhibit cancer cell growth, A549 lung cancer cells were treated with 1–3, 4[H][Cl], doxorubicin, and auranofin in a dose responsive manner. Cellular vitality (i.e., mitochondrial reductase activity) was then quantified colorimetrically post treatment using 3-(4,5-dimethylthiazol-2-yl)-2,5-diphenyltetrazolium bromide (MTT assay) (Table 2, Fig. 5).
(§1) Biological preparations and assays
(§2) Experimental compound preparation. Stock solutions of complexes 1–3, 4[H][Cl], auranofin (Tocris Bioscience 4600), and doxorubicin (Tocris Bioscience 2252) were dissolved in DMSO (2.5–10 mM, depending on the compound and its solubility), aliquoted, and stored at -80 °C prior to use.
(§3) Biological Materials and Cell Lines. Cell lines were obtained from the ATCC (A549 and PC-3) and Prof.
Zahid Siddik at M.D. Anderson Cancer Center (A2780 and A2780CP). Cell culture plastic ware (i.e. T-75 flasks, treated 6-well plates, treated 96-well plates, and cell scrapers) were obtained from Fisher Scientific. Cell were cultured in RPMI 1640 culture medium (+2mM glutamine, +25mM HEPES, Corning 10041cv) supplemented with 10% heat-inactivated fetal bovine serum (RMBIO FBS-BBT) and 1X penicillin-streptomycin (Sigma p4333). Unless otherwise noted, incubators were set to 37°C and 5% CO2.
Trypsin (HyClone SH30236.01) and 1X Phosphate Buffered Saline (HyClone SH30258.02, diluted in autoclaved deionized water) were utilized for general cell line maintenance and harvesting. Trace Metal […]
Cell Proliferation Studies. Cells were harvested and seeded into 96-well culture plates (Costar 07-200-90) in 100µL of culture media. They were allowed to incubate overnight at 37 °C in the presence of 5% CO2. […]
and PC-3 at 2000 cells/well. […]
were made. To each well of a 96 well plate was added 100 µL of the appropriate solution. After a total of three days, a […] aliquot of 3 mg/mL tetrazolium dye, 3-(4,5-dimethylthiazol-2-yl)-2,5-diphenyltetrazolium bromide (Alfa Aesar L11939) was added to each well, followed by a 4 hr incubation period at 37 °C. The medium was then removed, the resulting formazan was dissolved in […] DMSO and the respective absorbances were measured at 560–650 nm using a microplate reader (Molecular Devices, Sunnyvale, CA). Absorbance values were corrected for background and then normalized to wells containing untreated cells to allow for plate-to-plate comparisons. The data are shown as mean inhibition of proliferation or growth as a percentage of control cells and are from 2–3 replicate experiments. Resulting dose response curves were subjected to linear regression analysis (Origin by OriginLab, Inc.) for determination of IC50 values.

[3] = tested on: thioredoxin reductase (TrxR); settings: 6 h exposure; for Inhibition of TrxR at low concentrations: A549, 0.1–0.6 μM, lipoate reduction over 180 min; for Inhibition of TrxR at higher concentrations: A549, 1.25–5.0 μM, lipoate reduction
Method: Briefly, plateau phase A549 cells were exposed to variable doses of complexes 1, 3, 4[H][Cl], a 2 : 1 molar ratio of 4[H][Cl] and 5 (cocktail), auranofin, and doxorubicin for 6 h. Post treatment, the live cells were monitored colorimetrically over 180 min for their ability to reduce lipoate (Fig. 8a).

[4] = Serum protein binding: free Au in fetal bovine serum by ICP-MS; format: in vitro ADME; settings: 25 μM in FBS, 37 °C, methanolic extracts, up to 100 h
Method: To assess potential drug protein interactions, samples of fetal bovine serum (FBS) were treated with 25 μM 1, 3, and auranofin prior to incubating at 37 °C. Aliquots were taken and the free Au (non-protein bound, methanolic extracts) content was analyzed by ICP-MS (Fig. 6b).
Serum Protein Binding Studies.
aliquots were stored at -80°C.
in an Edvotek microcentrifuge. […] Samples
Detection of ROS by Flow Cytometry.
cells were treated with vehicle only.
g) at 5 °C. […] The pellet was
Control samples of unstained cells,
overnight. […] Post incubation, the media was
After incubation, the dye-
Cells were then imaged fluorescently
Lipoate Inhibition Assays.
well culture plates. […] The next day, appropriate
were added to each well. […] Afterwards, the liquid was then

[5] = tested on: A549 cells; assay: Detection of intracellular ROS by flow cytometry (CM-H2DCFDA); format: cell-based, human; settings: for Intracellular ROS increase, in words: A549, 0.625–2.5 μM, 6 h; for Increase in intracellular ROS (fluorescence cell population shift): A549, 2.5 μM, 6 h incubation, CM-H2DCFDA
[6] = Differential pulse voltammetry, quinone reduction potentials; format: physicochemical; settings: DMSO, 0.1 M [N(nBu)4][PF6], 0.1 mM analyte, vs. SCE; for E 1/2 a (V) DPV: first reduction, semiquinone radical (NQ˙–); for E 1/2 b (V) DPV: second reduction, quinone dianion (NQ2–)
Method: A series of electrochemical analyses, including cyclic voltammetry (CV) and differential pulse voltammetry (DPV), were carried out with [NnBu4][PF6] in anhydrous dimethyl sulfoxide (DMSO) in order to evaluate electronic properties of compounds 1–3 and 4[H][Cl]. […] These electrochemical features were attributed to the reduction of the quinone moiety to first produce the semiquinone radical (NQ^–) and then produce the quinone dianion (NQ^2–) forms of compounds 1–3 and 4[H][Cl].[70],[71] The quinone reduction potential in 4[H][Cl] occurs at –0.38 V, the lowest of all the molecules studied, indicative of a positively charged imidazolium ring. The quinone couple at –0.42 V observed for compound 1 is ascribed to the presence of bis(NHC). The same wave in compound 3 appears at a more negative potential (–0.47 V), presumably due to greater trans effects excreted by quinone annulated NHC ligand than the metal-bound chloride. This analysis agrees well with the differences in the observed δ^13C (Au–Ccarbene) resonances for compounds 1 and 3. […]
mM) as referenced to SCE (internal standard Fc0/+, adjusted to 0.435 V vs. SCE).

[7] = tested on: DNA duplex (5'CCGCAGCCA3'/5'TGGCTGCGG3'); assay: Thermal denaturation of a DNA duplex; format: binding; settings: 1 molar equivalent, 5 μM complex and duplex
[8] = tested on: A2780 ovarian; assay: Cell proliferation (MTT assay) in A2780 ovarian cells; format: cell-based, human; settings: Homo sapiens, A2780; wt-p53, platinum sensitive; Table 3
Method: (§4) Further anti-proliferation studies were carried out with complex 1 and its naphthoquinone component 4[H][Cl] using the following cell lines: A2780 ovarian (a wt-p53 cell line sensitive to platinum treatment), 2780CP ovarian (isogenic to A2780 but expressing multi-drug resistance (MDR)), and PC-3 prostate (p53 null) (Table 3).
as §1, §2, §3
(§5) Zahid Siddik at M.D. Anderson Cancer Center (A2780 and A2780CP). Cell culture plastic ware (i.e. T-75 flasks, treated 6-well plates, treated 96-well plates, and cell scrapers) were obtained from Fisher Scientific. […]
(§6) were made. […] The medium was then removed, the resulting formazan was dissolved in […] DMSO and the respective absorbances were measured at 560–650 nm using a microplate reader (Molecular Devices, Sunnyvale, CA). Absorbance values were corrected for background and then normalized to wells containing untreated cells to allow for plate-to-plate comparisons. […]

[9] = tested on: 2780CP ovarian; assay: Cell proliferation (MTT assay) in 2780CP ovarian cells; format: cell-based, human; settings: Homo sapiens; isogenic to A2780, multi-drug resistance; Table 3
Method: as §4, §1, §2, §3, §5, §6

[10] = tested on: PC-3 prostate; assay: Cell proliferation (MTT assay) in PC-3 prostate cells; format: cell-based, human; settings: Homo sapiens, Prostate cell; p53 null; Table 3
Method: as §4, §1, §2, §3, §5, §6

[11] = A549, ratio of IC50 to that of 1 (Table 2)
[12] = A549 lung cancer cells, MTT, 72 h, read-out: IC50

Structure (SMILES)	Increase in intracellular Au concentration as compared to complex 1 ([1]; A549, regardless of dose)	Fold less potent than 1 in cell proliferation [2]	Fold difference relative to 1 [2, 11]	IC50 [2, 12] [nM]	Inhibition of TrxR at low concentrations [3]	Free Au (non-protein bound) content over time [4]	Intracellular ROS increase, in words [5]	Intracellular Au levels (uptake), in words [1]	E 1/2 a (V) DPV [6]	E 1/2 b (V) DPV [6]	Inhibition of TrxR at higher concentrations [3]	Thermal stabilization of DNA [7]	Fold difference relative to 1 [2]	Intracellular Au levels (uptake), in words ([1]; A549, ICP-MS)	Increase in intracellular ROS (fluorescence cell population shift) [5] [fold]	IC50 ([2]; Homo sapiens, A549, 72 h, A549 lung cancer cells, MTT, 72 h, read-out: IC50) [nM]	IC50 ([2]; Homo sapiens, A549, Table 3, error = standard error from the mean, read-out: IC50 A549 lung) [nM]	IC50 [8] [nM]	IC50 [9] [nM]	IC50 [10] [nM]
CC(=O)OC[C@H]1O[C@@H]([S-])[C@H](OC(C)=O)[C@@H](OC(C)=O)[C@@H]1OC(C)=O.CCP(CC)CC.[Au+] [Auranofin, reference compound]	2–5 fold	23 fold	22.9	1670	inhibition of TrxR was apparent	decreased in a time dependent manner	minimal or no ROS increase	–	–	–	–	–	–	–	–	–	–	–	–	–
Cc1cc(C)c(-n2c3c([n+](-c4c(C)cc(C)cc4C)[c]2[Au-][Cl])C(=O)c2ccccc2C3=O)c(C)c1 [Complex 3, 1,3-dimesityl-4,5-naphthoquino-imidazol-2-ylidene)-gold(I) chloride]	–	> 150 fold and 165 fold	165	12100	–	–	minimal or no ROS increase	no intracellular Au was detected	–0.47 V	–1.31 V	remained inactive	–	–	–	–	–	–	–	–	–
COc1cccc2c1C(=O)c1c(O)c3c(c(O)c1C2=O)C[C@@](O)(C(=O)CO)C[C@@H]3O[C@H]1C[C@H](N)[C@H](O)[C@H](C)O1 [Doxorubicin, reference compound]	–	–	–	–	little to no inhibition	–	minimal or no ROS increase	–	–	–	remained inactive	Significant DNA stabilization	1.41	–	–	–	–	–	–	–
Cc1cc(C)c(-[n+]2ccn(Cc3ccccc3)[c]2[Au-][c]2n(Cc3ccccc3)cc[n+]2-c2c(C)cc(C)cc2C)c(C)c1.[Cl-] [Complex 5, bis(1-benzyl-3-mesityl-imidazol-2-ylidene)-gold(I) chloride, reference compound]	–	~10 fold	9.72	710	–	–	–	–	–	–	became evident	–	–	identical	~11	–	–	–	–	–
Cc1cc(C)c(-n2c3c(n(-c4c(C)cc(C)cc4C)[c]2=[Au]([Cl])=[c]2n(-c4c(C)cc(C)cc4C)c4c(n2-c2c(C)cc(C)cc2C)C(=O)c2ccccc2C4=O)C(=O)c2ccccc2C3=O)c(C)c1 [Complex 2, [bis(1,3-dimesityl-4,5-naphthoquino-imidazol-2-ylidene)-gold(I)] chloride]	–	–	1	75	–	–	–	–	–0.46 V	–1.31 V	–	–	–	–	–	–	–	–	–	–
Cc1cc(C)c(-n2c[n+](-c3c(C)cc(C)cc3C)c3c2C(=O)c2ccccc2C3=O)c(C)c1 [4[H][Cl], 1,3-dimesitylnaphthoquinimidazolium]	–	~14 fold	13.6	–	–	–	–	–	–0.38 V	–1.15 V	became evident	no thermal stabilization	–	–	~11	990 ± 120	994 ± 120	159 ± 58	626 ± 117	136 ± 20
